Laboratory results as given in patent publication US6974800B1, “Formulations comprising an inhibitor of carboxypeptidase U and A thrombin inhibitor” (AstraZeneca AB, priority 1999, dated 2005).

Test system: lung fibrin deposition
Test: Lung fibrin deposition in the anaesthetized rat (endotoxin + batroxobin, 125I-fibrinogen)
Format: in vivo, rat (Sprague Dawley)
Description: Batroxobin No. 520 CRY (American Diagnostica Inc., Greenwich, Conn., USA) was kept at 8° C. both while lyophilized and when dissolved in saline to a concentration of 10 BU/ml. It was used within 5 days in the experiments. The remaining drug was freezed and kept at […] for a maximum of 30 days.
Endotoxin L-3129 (Sigma, St. Louis, Mo., USA) was dissolved in saline to a concentration of 50 μg/ml. A fresh solution was prepared for each experiment.
^125I-labelled human fibrinogen (Amersham, Little Chalfont, Buck., UK) was stored at 8° C. while lyophilized. After dissolving in saline/aq.dest. (80/20 v/v) to a stock solution of approx. 0.8 MBq/ml (20 μCi/ml) it was divided into aliquots (one for each experiment), quickly freezed and stored at −20° C. It was used in the experiments within 14 days after the production date.
The thrombin inhibitor inogatran was dissolved in 40% (w/w) cyclodextrin (HPβCD) to a concentration of 5 mg/ml and stored at −20° C. It was further diluted with 40% cyclo-dextrin before use in the different experiments. In the studies the drug was administered subcutaneously.
The thrombin inhibitor melagatran was dissolved in saline.
The CPU inhibitors […] and Compound A were dissolved in deoxygenated saline. The saline was deoxygenated by ultrasonication for 20 min and subsequently by passing nitrogen for another 20 min. The solutions were always fresh-made for each experiment. The CPU inhibitor was administered to the rats as an i.v. infusion for 5 min.
Male rats of the Sprague Dawley strain (Charles River, Sweden) with a body weight of 325–425 g were used in these experiments. The animals were allowed to accommodate at AstraZeneca R&D, Mölndal, Sweden for 1 week before use.
Anaesthesia was induced and maintained by Inactin 100 mg/kg i.p.
Two catheters were inserted in the left jugular vein, one for administration of ^125I-fibrinogen and batroxobin and the other for administration of endotoxin and CPU inhibitor or their corresponding vehicles. A third catheter was inserted in the carotid artery for blood sampling and measurement of the mean arterial blood pressure and heart rate. To avoid blood clots in the arterial catheter a slow saline infusion (approx. 1.0 ml/kg*h) was maintained throughout the experiment. The rats were tracheotomized in order to facilitate spontaneous breathing. The body temperature was monitored and maintained at 38° C. by external heating.
The animals were given an i.v. injection of endotoxin (50 μg/kg) at the start of the experiment. Two hours later the thrombin inhibitor or its vehicle was injected subcutaneously and another 15 min later ^125I-fibrinogen (0.04 MBq) was given as an i.v. injection. An infusion lasting for five minutes of the CPU-inhibitor or its vehicle was started after 5 min. After 5 min, batroxobin (10 BU/kg) was given as an i.v. bolus injection for one minute.
Blood samples for determination of ^125I-content were taken in all experiments just before and 5, 20 and 30 min after the batroxobin administration. At the end of the experiment the lungs were excised, the tissue was gently washed in saline and thereafter blotted and weighed. The ^125I-content in the tissue and blood samples was determined, using a Wallac 1282 Compugamma counter. The ^125I-concentration in plasma and in the lungs was expressed as a percentage of the radioactivity in the reference arterial blood sample taken just prior to the batroxobin injection.
For each of the four different dose combinations, only CPU inhibitor, only thrombin inhibitor, thrombin inhibitor together with CPU inhibitor at 0.2 and 0.28 μmol/kg respectively, separate E-max models were fitted. The models were fitted on a logarithmic scale giving estimates of the median effective dose, i.e., the dose where half of the population has 50% effect.

## N=C(N)NCCSCC(CS)C(=O)O (racemic) [MERGETPA, DL-2-mercaptomethyl-3-guanidinoethylthiopropanoic acid]
Table I, CPU inhibitor alone, 8.4 μmol/kg i.v. infusion, 100% = no effect
  Remaining fibrin after treatment: 90 ± 18.1%
Table I, CPU inhibitor alone, 21.1 μmol/kg i.v. infusion
  Remaining fibrin after treatment: 37 ± 19.3%
Table I, CPU inhibitor alone, 33.7 μmol/kg i.v. infusion
  Remaining fibrin after treatment: 23 ± 17.3%

## Nc1ccc(CC(CS)C(=O)O)cn1 (stereo not drawn) [compound A, 3-(6-amino-pyridin-3-yl)-2-mercaptomethyl-propanoic acid]
Table II, CPU inhibitor alone, 0.20 μmol/kg i.v. infusion
  Remaining fibrin after treatment: 100 ± 25.8%
Table II, CPU inhibitor alone, 0.28 μmol/kg
  Remaining fibrin after treatment: 88 ± 23.2%
Table II, CPU inhibitor alone, 0.4 μmol/kg
  Remaining fibrin after treatment: 87 ± 50.6 n = 6%
Table II, CPU inhibitor alone, 2.0 μmol/kg
  Remaining fibrin after treatment: 49 ± 30.0 n = 7%
Table II, CPU inhibitor alone, 4.0 μmol/kg
  Remaining fibrin after treatment: 15 ± 9.3 n = 4%
Table II, CPU inhibitor alone, 20.0 μmol/kg
  Remaining fibrin after treatment: 7 ± 1.4 n = 2%
Table III, CPU inhibitor alone, 0.20 μmol/kg
  Remaining fibrin after treatment: 97 ± 24.1%
Table III, CPU inhibitor alone, 0.28 μmol/kg
  Remaining fibrin after treatment: 81 ± 24.5%

## N=C(N)NCCCNC(=O)[C@@H]1CCCCN1C(=O)[C@@H](CC1CCCCC1)NCC(=O)O [inogatran, HOOC—CH2—(R)Cha-Pic-Nag-H]
Table I, thrombin inhibitor alone, 2.3 μmol/kg s.c.
  Remaining fibrin after treatment: 94 ± 20.2 n = 6%
Table I, thrombin inhibitor alone, 3.4 μmol/kg s.c.
  Remaining fibrin after treatment: 72 ± 23.6 n = 6%
Table I, thrombin inhibitor alone, 5.7 μmol/kg s.c.
  Remaining fibrin after treatment: 41 ± 20.3 n = 6%
Table I, thrombin inhibitor alone, 17.2 μmol/kg s.c.
  Remaining fibrin after treatment: 39 ± 15.9 n = 6%

## N=C(N)c1ccc(CNC(=O)[C@@H]2CCN2C(=O)[C@H](NCC(=O)O)C2CCCCC2)cc1 [melagatran, HOOC—CH2—(R)Cgl-Aze-Pab-H]
Table II, thrombin inhibitor alone, 0.23 μmol/kg s.c.
  Remaining fibrin after treatment: 97 ± 12.4 n = 6%
Table II, thrombin inhibitor alone, 0.35 μmol/kg
  Remaining fibrin after treatment: 77 ± 22.4 n = 4%
Table II, thrombin inhibitor alone, 0.58 μmol/kg
  Remaining fibrin after treatment: 62 ± 17.0 n = 2%
Table II, thrombin inhibitor alone, 1.75 μmol/kg
  Remaining fibrin after treatment: 31 ± 13.3 n = 4%
Table II, thrombin inhibitor alone, 3.5 μmol/kg
  Remaining fibrin after treatment: 55 ± 21.7 n = 4%
Table III, thrombin inhibitor alone, 0.18 μmol/kg
  Remaining fibrin after treatment: 110 ± 15.2 n = 3%
Table III, thrombin inhibitor alone, 0.23 μmol/kg
  Remaining fibrin after treatment: 98 ± 11.5 n = 7%
Table III, thrombin inhibitor alone, 0.30 μmol/kg
  Remaining fibrin after treatment: 87 ± 27.6 n = 3%
Table III, thrombin inhibitor alone, 0.35 μmol/kg
  Remaining fibrin after treatment: 77 ± 22.4 n = 4%
